# Reference: ChEMBL document CHEMBL1126489, “N1-sterically hindered 2H-imidazol-2-one angiotensin II receptor antagonists: The conversion of surmountable antagonists to insurmountable antagonists” (Bioorg Med Chem Lett, 1993)
# Target: T1, Angiotensin II receptor (Rattus norvegicus, UniProt P29089+P25095+P35351)
# T1 sequence (P29089 whole entry): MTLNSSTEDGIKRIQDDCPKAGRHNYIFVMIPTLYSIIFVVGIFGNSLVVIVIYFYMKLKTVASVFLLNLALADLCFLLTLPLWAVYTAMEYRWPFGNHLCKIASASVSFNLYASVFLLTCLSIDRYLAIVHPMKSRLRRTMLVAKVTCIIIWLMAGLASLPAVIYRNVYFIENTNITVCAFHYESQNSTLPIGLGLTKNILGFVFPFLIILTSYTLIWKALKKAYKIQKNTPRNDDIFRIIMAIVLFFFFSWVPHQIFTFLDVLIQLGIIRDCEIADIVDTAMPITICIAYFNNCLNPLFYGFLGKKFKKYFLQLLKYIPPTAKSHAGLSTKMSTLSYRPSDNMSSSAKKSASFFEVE
# T1 sequence (P25095 whole entry): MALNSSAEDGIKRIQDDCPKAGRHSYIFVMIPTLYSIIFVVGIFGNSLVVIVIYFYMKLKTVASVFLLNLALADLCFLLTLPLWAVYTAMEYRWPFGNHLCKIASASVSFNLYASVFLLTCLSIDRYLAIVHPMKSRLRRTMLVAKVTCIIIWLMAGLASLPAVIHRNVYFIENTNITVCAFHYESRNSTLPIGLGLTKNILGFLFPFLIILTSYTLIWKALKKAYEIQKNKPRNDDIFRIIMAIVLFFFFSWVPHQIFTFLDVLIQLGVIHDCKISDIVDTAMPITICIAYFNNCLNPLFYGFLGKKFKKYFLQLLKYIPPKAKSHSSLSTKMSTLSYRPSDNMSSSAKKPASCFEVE
# T1 sequence (P35351 whole entry): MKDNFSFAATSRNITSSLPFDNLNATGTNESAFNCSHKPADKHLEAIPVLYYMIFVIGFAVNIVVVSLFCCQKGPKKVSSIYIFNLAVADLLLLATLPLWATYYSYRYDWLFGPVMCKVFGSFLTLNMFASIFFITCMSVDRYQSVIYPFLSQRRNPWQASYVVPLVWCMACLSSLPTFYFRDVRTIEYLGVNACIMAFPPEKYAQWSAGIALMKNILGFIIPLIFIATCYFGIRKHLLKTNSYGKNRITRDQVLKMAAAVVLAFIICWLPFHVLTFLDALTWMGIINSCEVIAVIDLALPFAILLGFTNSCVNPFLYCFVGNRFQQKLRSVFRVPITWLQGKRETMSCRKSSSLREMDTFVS
# Experiment: Inhibition of [125I]-AII binding to Angiotensin II receptor of rat uterine membrane
row,SMILES,IC50
1,CCCCc1cn(-c2c(C(C)C)cccc2C(C)C)c(=O)n1Cc1ccc(-c2ccccc2-c2nn[nH]n2)nc1,34 nM
2,CCCCc1cn(-c2c(CC)cccc2CC)c(=O)n1Cc1ccc(-c2ccccc2-c2nn[nH]n2)nc1,5 nM
3,CCCCc1cn(-c2c(C)cccc2C)c(=O)n1Cc1ccc(-c2ccccc2-c2nn[nH]n2)nc1,5 nM
4,CCCCc1nc(CCCC)n(Cc2ccc(-c3ccccc3-c3nn[nH]n3)cc2)n1,5.6 nM
5,CCCCC1=NC2(CCCC2)C(=O)N1Cc1ccc(-c2ccccc2-c2nnn[nH]2)cc1 [IRBESARTAN],1.3 nM
6,CCCCc1cn(CCCC)c(=O)n1Cc1ccc(-c2ccccc2-c2nn[nH]n2)cc1 [SC-51895],12 nM
7,CCCCc1cn(CCCC)c(=O)n1Cc1ccc(-c2ccccc2-c2nn[nH]n2)nc1 [SC-52892],6.5 nM
8,CCCCc1cn([C@H]2[C@H](C)CCC[C@@H]2C)c(=O)n1Cc1ccc(-c2ccccc2-c2nn[nH]n2)nc1 [SC-55634],4.9 nM

# The remaining lines, values ahead:
row,IC50,SMILES
1,4.5 nM,CCCCc1cn(-c2ccccc2CC)c(=O)n1Cc1ccc(-c2ccccc2-c2nn[nH]n2)nc1
2,14 nM,CCCCc1cn(-c2ccccc2C(C)C)c(=O)n1Cc1ccc(-c2ccccc2-c2nn[nH]n2)nc1
3,9.4 nM,CCCCc1cn(-c2ccccc2C)c(=O)n1Cc1ccc(-c2ccccc2-c2nn[nH]n2)nc1
4,19 nM,CCCCc1cn(-c2ccccc2C(C)(C)C)c(=O)n1Cc1ccc(-c2ccccc2-c2nn[nH]n2)nc1
5,45 nM,CCCCc1cn(-c2ccccc2)c(=O)n1Cc1ccc(-c2ccccc2-c2nn[nH]n2)nc1
